We go through 1 compound from publication PMC6152329, “Antitumoural Sulphur and Selenium Heteroaryl Compounds: Thermal Characterization and Stability Evaluation” (Molecules : A Journal of Synthetic Chemistry and Natural …, 2017).

Data set [1] in a line: Thermogravimetric (TG) analysis of thermal stability. Format: physicochemical. The protocol:
The thermogravimetric (TG) studies were carried out with a Perkin–Elmer TGA-7 (Perkin Elmer, Inc. Watham, MA, USA) which was calibrated with alumel and nickel at 10 °C·min^−1. The calibration of the oven temperatures was carried out automatically and mass calibrated with a certified sample of 10 mg (ASTM E617, provided by Perkin Elmer, Inc. Watham, MA, USA). TG analyses were performed under a nitrogen atmosphere with a gas flow of 40 mL·min^−1, from 50 to 350 °C, at a heating rate of 10 °C·min^−1, using a sample of approximately 3 mg, in order to obtain the values of the Tonset and Tmax of the degradation process as well as any associated mass loss.

A short description of data set [2]: DSC successive melting-recrystallization cycles, polymorphic behaviour. On the set-up: key: I: Compounds that show a polymorphic phase transition into an amorphous or mainly amorphous solid form after a first melting–cooling scan; II: Compounds that change into a new polymorphic form with a different Tonset of fusion than the one observed at the first melting–recrystallization scan after cooling; III: These compounds show a fusion process without modifications in the thermal behaviour after an initial fusion–recrystallization cycle; IV: Compounds that show recrystallization or other types of phase transition of the original form into another crystalline one in the first heat scan; V: Compounds without fusion processes at the range of temperatures studied; *: fusion with decomposition. Format: physicochemical. Conditions: 10 °C/min. The protocol: To establish general polymorphic behaviours, samples of all the compounds synthetized (Figure 1) were exposed to successive cycles of melting–recrystallization using DSC. Calorimetric analyses were performed before the beginning of the degradation process (Table 6). […] This behaviour was shown by several compounds: VA1C, VA2E, VA8E, series H, VA6I, VA8J, VA6M and VA8M. DSC and PXRD results of compound VA7H are shown as supplementary material (Figures S1 and S2 and Table S1). • Behaviour II—Compounds that change into a new polymorphic form with a different Tonset of fusion than the one observed at the first melting–recrystallization scan after cooling. These compounds are VA7E and VA8O. DSC and PXRD results of compound VA7E are shown as supplementary material (Figures S3 and S4, Table S2). • Behaviour III—These compounds show a fusion process without modifications in the thermal behaviour after an initial fusion–recrystallization cycle. Consequently, there is no evidence of polymorphic behaviour. The compounds VA2C, VA2M, VA4J and VA5O belong to this group. DSC and PXRD results of compound VA2M are shown as supplementary material (Figures S5 and S6, Table S3). • Behaviour IV—Compounds that show recrystallization or other types of phase transition of the original form into another crystalline one in the first heat scan. In the successive cycles of melting–recrystallization, the new form may not alter its crystalline form or transit to another polymorphic form. Compounds VA6E, VA7J and VA7M show this behaviour. • Behaviour V—Compounds without fusion processes at the range of temperatures studied.
For calorimetric studies a Perkin–Elmer DSC diamond calibrated with indium and zinc (provided by Perkin–Elmer (Perkin Elmer, Inc. Watham, MA, USA) and fabricated according to guideline ISO35) at 10 °C·min^−1 and nitrogen flow of 20 mL·min^−1 was employed. The gas connected to the equipment was nitrogen with a purity of 99.999%. Calorimetric analyses were carried out in aluminium capsules for volatilities of 10 μL, at a heating rate of 10 °C·min^−1, using a sample of approximately 3 mg, in order to establish the Tonset, Tmax and the enthalpy of fusion ∆Hf.
The calorimetric analyses started with the study of the thermal behaviour of the compounds before the process of degradation in order to evidence the possible existence of polymorphism. For this preliminary study, samples of all the compounds were exposed to successive cycles of heating–cooling. All samples were heated from 50 °C to temperatures 15–20 °C below Tonset of the degradation process, in order to ensure that compounds were not degraded (Table 6). After melting the samples, they were left at room temperature for enough time to allow the compounds to recrystallize before the successive thermal process. Additional cycles of heating–cooling were performed if polymorphism was detected.

Data set [3] in a line: Stability after stress conditions by HPLC/UV-DAD. Format: physicochemical. The settings on record: 0, 4 and 24 h. The protocol: The stability of compounds VA4J (without polymorphic behaviour) and VA6E and VA7J (with polymorphic behaviour) was investigated after the application of diverse stress conditions: acid hydrolysis (HCl 1 M), basic hydrolysis (NaOH 0.1 M) and oxidation (H2O2 3%). Chromatographic studies using HPLC/UV-DAD were performed with this purpose.
Chromatographic studies were performed using an HPLC/UV-DAD (HP 1200, Agilent Technologies. Santa Clara, CA, USA) with a C18 column (Gemini-NX 150 × 4.6 mm, 5 µm) from Phenomenex (Phenomenex. Torrance, CA, USA). The mobile phase was a mixture of acetonitrile/water (80:20; v/v) for compound VA4J, (50:50; v/v) for VA6E and (80:20, 0.1% formic acid; v/v) for compound VA7J. The injection volume was 50 µL and the flow rate was 1 mL/min. Chromatography was performed at 35 °C. UV-DAD detection was established at λ = 254 nm.
For stability evaluation in stress conditions, working solutions of 47.6 µg/mL were prepared by diluting 20 µL of each standard solution in 200 µL of acetonitrile and 200 µL of (a) 1 M HCl, (b) 0.1 M NaOH and (c) 3% H2O2. Data were recorded at zero time and after 4 and 24 h of exposure.

Data set [4] has as its system breast adenocarcinoma (MCF-7) cell line. On the set-up: method as in PMID 27487570. The settings on record: same methodology; cited from earlier work.

Each structure is given as a SMILES string.

Take `N#CSCc1cc2c(cc1Br)OCO2` [VA6E]: in data set [1] (nitrogen, 50 to 350 °C, 10 °C/min), the “TG To (Tonset of thermal degradation)” value amounted to 184.1 °C. For the same compound, the “TG decomposition or desolvation processes in the temperature range studied” value in data set [1] (range 100–135 °C for VA4J, 94–108 °C for VA6E) is “can be excluded”. Besides, the “DSC Behaviour (polymorphic/calorimetric behaviour)” value in data set [2] is on record as “IV”. Besides, the Stability to oxidation result in data set [3] (H2O2 3%) is “degradation product peaks were also detected”. For the same compound, the “Stability to acid hydrolysis” value in data set [3] (HCl 1 M) is given as “degradation product peaks were also detected”. Besides, the “Stability to basic (alkaline) hydrolysis” value in data set [3] (NaOH 0.1 M) was “degraded almost completely”. Also, the “Selectivity relative to MSA” value in data set [4] is recorded as “fourteen times more selective than MSA”.
